Results taken from US10450306B2, “Isoxazole analogs as FXR agonists and methods of use thereof” (Enanta Pharmaceuticals, Inc., priority 2016, dated 2019).

Molecular target: T1, human FXR (NR1H4) (Homo sapiens, UniProt Q96RI1)
T1 construct: host or cells: CHO (Chinese hamster ovary) reporter cells
T1 sequence (Q96RI1 1-486): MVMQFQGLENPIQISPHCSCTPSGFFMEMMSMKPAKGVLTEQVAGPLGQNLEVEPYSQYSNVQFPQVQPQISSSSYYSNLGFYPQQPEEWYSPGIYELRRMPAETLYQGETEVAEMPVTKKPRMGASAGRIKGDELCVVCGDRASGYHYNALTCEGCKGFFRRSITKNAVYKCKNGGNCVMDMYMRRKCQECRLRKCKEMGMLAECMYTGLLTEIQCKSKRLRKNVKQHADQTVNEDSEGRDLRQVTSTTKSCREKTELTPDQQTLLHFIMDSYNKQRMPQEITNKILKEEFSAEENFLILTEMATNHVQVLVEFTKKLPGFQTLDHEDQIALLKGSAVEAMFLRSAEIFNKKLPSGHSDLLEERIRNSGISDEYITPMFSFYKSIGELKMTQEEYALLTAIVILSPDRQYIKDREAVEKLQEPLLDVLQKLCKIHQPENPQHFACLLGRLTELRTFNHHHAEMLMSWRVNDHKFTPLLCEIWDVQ
Test: Human FXR (NR1H4) Assay: Gal4 promoter driven luciferase reporter transactivation in CHO cells (Indigo Bioscience kit IB00601); for Efficacy (%): efficacy normalized to CDCA set as 100%
Assay type: cell-based
Details: for Emax: CHO, read-out: Efficacy (%); for EC50: Human FXR (NR1H4) reporter assay, potency ranges
Excerpt: Human FXR (NR1H4) Assay Determination of a ligand mediated Gal4 promoter driven transactivation to quantify ligand binding mediated activation of FXR. FXR Reporter Assay kit purchased from Indigo Bioscience (Catalogue number: IB00601) to determine the potency and efficacy of compound developed by Enanta that can induce FXR activation. The principle application of this reporter assay system is to quantify functional activity of human FXR. The assay utilizes non-human mammalian cells, CHO (Chinese hamster ovary) cells engineered to express human NR1H4 protein (referred to as FXR). Reporter cells also incorporate the cDNA encoding beetle luciferase which catalyzes the substrates and yields photon emission. Luminescence intensity of the reaction is quantified using a plate-reading luminometer, Envision. Reporter Cells include the luciferase reporter gene functionally linked to an FXR responsive promoter. Thus, quantifying changes in luciferase expression in the treated reporter cells provides a sensitive surrogate measure of the changes in FXR activity. […] The assay is according to the manufacturer's instructions. In brief, the assay was performed in white, 96 well plates using final volume of 100 ul containing cells with different doses of compounds. Retrieve Reporter Cells from −80° C. storage. Perform a rapid thaw of the frozen cells by transferring a 10 ml volume of 37° C. cell recovery medium into the tube of frozen cells. Recap the tube of Reporter Cells and immediately place it in a 37° C. water bath for 5-10 minutes. Retrieve the tube of Reporter Cell Suspension from the water bath. Sanitize the outside surface of the tube with a 70% alcohol swab, and then transfer it into the cell culture hood. Dispense 90 μl of cell suspension into each well of the 96-well Assay Plate. Transfer the plate into 37° C. incubator, allowing the cells adherent to the bottom of the well. Dilute compounds in Dilution Plate (DP), and administrate to cells at Assay Plate (AP). DMSO content of the samples was kept at 0.2%. Cells were incubated for additional 22 hours before luciferase activities were measured. Thirty minutes before intending to quantify FXR activity, remove Detection Substrate and Detection Buffer from the refrigerator and place them in a low-light area so that they may equilibrate to room temperature. Remove the plate's lid and discard all media contents by ejecting it into an appropriate waste container. Gently tap the inverted plate onto a clean absorbent paper towel to remove residual droplets. Cells will remain tightly adhered to well bottoms. Add 100 ul of luciferase detection reagent to each well of the assay plate. Allow the assay plate to rest at room temperature for at least 5 minutes following the addition of LDR. Set the instrument (Envision) to perform a single 5 second “plate shake” prior to reading the first assay well. Read time may be 0.5 second (500 mSec) per well.

CCOc1cc(C(=O)NS(=O)(=O)N2CCCCC2)cc2sc(N3C4CCC3CC(NCc3c(-c5c(Cl)cccc5Cl)noc3C3CC3)C4)nc12 (centres unmarked) [Example 400-16] was tested, and the Emax was 87.3% and the EC50 was < 1 nM.
Compound COc1nc2cc(C(=O)O)ccc2nc1N1C2CCC1CC(NCc1c(-c3c(Cl)cccc3Cl)noc1C1CC1)C2 (centres unmarked) [Example 198] has an Emax of 140% and an EC50 of 1 to 100 nM.
O=C(O)c1ccc(N2C3CCC2CC(NCc2c(-c4c(Cl)cccc4Cl)noc2C2CC2)C3)nc1 (centres unmarked) [Example 125] was tested, and the Emax was 86.5% and the EC50 was 1 to 100 nM.
Work on CC(C)Oc1cc(C(=O)NS(=O)(=O)N2CCCCC2)cc2sc(N3C4CCC3CC(NCc3c(-c5c(Cl)cccc5Cl)noc3C3CC3)C4)nc12 (centres unmarked) [Example 400-20] yielded an Emax of 43.6% and an EC50 of 1 to 100 nM.
Compound O=C(O)c1cc2sc(N3C4CCC3CC(NCc3c(-c5c(Cl)cccc5Cl)noc3C3CC3)C4)nc2cc1F (centres unmarked) [Example 200-16] has an Emax of 109% and an EC50 of 1 to 100 nM.
With CN(c1nc2ccc(C(=O)O)cc2s1)C1CCC(OCc2c(-c3c(Cl)cccc3Cl)noc2C2CC2)CC1 (centres unmarked) [Example 170] the Emax was 105% and the EC50 was 100 to 1000 nM.
Work on O=C(O)c1cc(F)c2nc(N3CCC(NCc4c(-c5c(Cl)cccc5Cl)noc4C4CC4)CC3)sc2c1 [Example 200-6] yielded an Emax of 86.5% and an EC50 of 1 to 100 nM.
In the case of O=C(O)c1cc(C2CC2)c2nc(N3C4CCC3CC(NCc3c(-c5ccccc5OC(F)(F)F)noc3C3CC3)C4)sc2c1 (centres unmarked) [Example 644], the Emax is reported as 94.5% and the EC50 is reported as < 1 nM.
CN(C)S(=O)(=O)NC(=O)c1ccc2nc(N3C4CCC3CC(NCc3c(-c5c(Cl)cccc5Cl)noc3C3CC3)C4)sc2c1 (single isomer, unassigned) [Example 225] was tested, and the Emax was 126% and the EC50 was < 1 nM.
With COC(=O)c1cc(C2CC2)c2nc(N3C4CCC3CC(NCc3c(-c5c(Cl)cccc5Cl)noc3C3CC3)C4)sc2c1 (centres unmarked) [Example 200-29] the Emax was 94% and the EC50 was 1 to 100 nM.
In the case of CC(C)Oc1cc(C(=O)NS(=O)(=O)N2CCCCC2)cc2sc(N3CCC(NCc4c(-c5c(Cl)cccc5Cl)noc4C4CC4)CC3)nc12 [Example 400-6], the Emax is reported as 73.5% and the EC50 is reported as 1 to 100 nM.
In the case of CC(C)Oc1cc(C(=O)NS(=O)(=O)C2(C)CC2)cc2sc(N3C4CCC3CC(NCc3c(-c5c(Cl)cccc5Cl)noc3C3CC3)C4)nc12 (centres unmarked) [Example 400-18], the Emax is reported as 98% and the EC50 is reported as < 1 nM.
O=C(O)CNC(=O)c1cc(F)c2nc(N3C4CCC3CC(NCc3c(-c5c(Cl)cccc5Cl)noc3C3CC3)C4)sc2c1 (centres unmarked) [Example 96] showed an Emax of 136% and an EC50 of 1 to 100 nM.
For CC(C)Oc1cc(C(=O)O)cc2sc(N3CCC(NCc4c(-c5c(Cl)cccc5Cl)noc4C4CC4)CC3)nc12 [Example 200-4], the Emax was 106% and the EC50 was 1 to 100 nM.
O=C(O)c1ccc(N2C3CCC2CC(NCc2c(-c4c(Cl)cccc4Cl)noc2C2CC2)C3)c(F)c1 [Example 122, 4-((1R,3r,5S)-3-(((5-cyclopropyl-3-(2,6-dichlorophenyl)isoxazol-4-yl)methyl)amino)-8-azabicyclo[3.2.1]octan-8-yl)-3-fluorobenzoic acid] was tested, and the Emax was 90% and the EC50 was 1 to 100 nM.
CC1(S(=O)(=O)NC(=O)c2cc3sc(N4C5CCC4CC(NCc4c(-c6c(Cl)cccc6Cl)noc4C4CC4)C5)nc3cc2F)CC1 (centres unmarked) [Example 400-22] was tested, and the Emax was 83.2% and the EC50 was < 1 nM.
O=C(O)c1ccc2nc(N3[C@@H]4CC[C@H]3C[C@H](NCc3c(-c5c(Cl)cccc5Cl)noc3C3CC3)C4)sc2c1 [Example 178] was tested, and the Emax was 108% and the EC50 was > 1000 nM.
With CC1(S(=O)(=O)NC(=O)c2ccc3nc(N4C5CCC4CC(N(C=O)Cc4c(-c6c(Cl)cccc6Cl)noc4C4CC4)C5)sc3c2)CC1 (centres unmarked) [Example 294] the Emax was 130% and the EC50 was > 1000 nM.
For CN(C)S(=O)(=O)NC(=O)c1ccc2nc(N3CCC(NCc4c(-c5c(Cl)cccc5Cl)noc4C4CC4)CC3)sc2c1 [Example 282], the Emax was 142% and the EC50 was 1 to 100 nM.
With CC1(S(=O)(=O)NC(=O)c2ccc3nc(N4C5CCC4CC(NCc4c(-c6ccccc6C(F)(F)F)noc4C4CC4)C5)sc3c2)CC1 (centres unmarked) [Example 1420] the Emax was 91% and the EC50 was 1 to 100 nM.
CC1(S(=O)(=O)NC(=O)c2ccc3nc(N4C5CCC4CC(NCc4c(-c6ccccc6OC(F)(F)F)noc4C4CC4)C5)sc3c2)CC1 (centres unmarked) [Example 702] gave an Emax of 113% and an EC50 of 1 to 100 nM.
O=C(NS(=O)(=O)C1CC1)c1ccc(N2C3CCC2CC(NCc2c(-c4ccccc4OC(F)(F)F)noc2C2CC2)C3)nc1 (centres unmarked) [Example 900-13] showed an Emax of 59.5% and an EC50 of 1 to 100 nM.
In the case of CC1(S(=O)(=O)NC(=O)c2cc(C3CC3)c3nc(N4C5CCC4CC(NCc4c(-c6ccccc6OC(F)(F)F)noc4C4CC4)C5)sc3c2)CC1 (centres unmarked) [Example 900-9], the Emax is reported as 122% and the EC50 is reported as < 1 nM.
Work on CC1(S(=O)(=O)NC(=O)c2ccc3nc(N4C5CCC4CC(NCc4c(-c6c(Cl)cccc6Cl)noc4C4CC4)C5)oc3c2)CC1 (centres unmarked) [Example 302] yielded an Emax of 62% and an EC50 of 1 to 100 nM.
COc1cc(C(=O)NCCS(=O)(=O)O)cc2sc(N3C4CCC3CC(NCc3c(-c5c(Cl)cccc5Cl)noc3C3CC3)C4)nc12 (centres unmarked) [Example 200-12] gave an Emax of 16.5% and an EC50 of 1 to 100 nM.
Compound O=C(O)c1ccc2nc(N3CCN(Cc4c(-c5c(Cl)cccc5Cl)noc4C4CC4)CC3)sc2c1 [Example 172] has an Emax of 257% and an EC50 of 100 to 1000 nM.
In the case of Fc1cc(-c2nn[nH]n2)ccc1N1C2CCC1CC(NCc1c(-c3c(Cl)cccc3Cl)noc1C1CC1)C2 (centres unmarked) [Example 138], the Emax is reported as 155% and the EC50 is reported as < 1 nM.
For O=C(O)c1cc(OC(F)F)c2nc(N3[C@@H]4CC[C@H]3C[C@@H](NCc3c(-c5c(Cl)cccc5Cl)noc3C3CC3)C4)sc2c1 [Example 190, 2-((1R,3r,5S)-3-(((5-cyclopropyl-3-(2,6-dichlorophenyl)isoxazol-4-yl)methyl)amino)-8-azabicyclo[3.2.1]octan-8-yl)-4-(difluoromethoxy)benzo[d]thiazole-6-carboxylic acid], the Emax was 96% and the EC50 was < 1 nM.
O=C(O)c1cc(F)c2nc(N3CCC(NCc4c(-c5ccccc5OC(F)(F)F)noc4C4CC4)CC3)sc2c1 [Example 642] was tested, and the Emax was 85.3% and the EC50 was 100 to 1000 nM.
Work on CCOC(=O)c1ccc2nc(N3C4CCC3CC(NCc3c(-c5ccccc5C(F)(F)F)noc3C3CC3)C4)sc2c1 (centres unmarked) [Example 1412] yielded an Emax of 75% and an EC50 of 100 to 1000 nM.
COC(=O)c1cc(OC(F)F)c2nc(N3C4CCC3CC(NCc3c(-c5c(Cl)cccc5Cl)noc3C3CC3)C4)sc2c1 (centres unmarked) [Example 189] showed an Emax of 73% and an EC50 of 1 to 100 nM.
For O=C(O)c1cc(C2CC2)c2nc(N3C4CCC3CC(NCc3c(-c5c(F)cccc5F)noc3C3CC3)C4)sc2c1 (centres unmarked) [Example 1419], the Emax was 107% and the EC50 was 1 to 100 nM.
Compound CC(C)Oc1cc(C(=O)NS(=O)(=O)C2(C)CC2)cc2sc(N3CCC(NCc4c(-c5ccccc5OC(F)(F)F)noc4C4CC4)CC3)nc12 [Example 900-6] has an Emax of 112% and an EC50 of 1 to 100 nM.
For O=C(O)c1ccc2nc(N3[C@@H]4CC[C@H]3C[C@@H](NCc3c(-c5c(Cl)cccc5Cl)noc3C3CC3)C4)sc2c1 [Example 2, 2-((1R,3R,5S)-3-(((5-cyclopropyl-3-(2,6-dichlorophenyl)isoxazol-4-yl)methyl)amino)-8-azabicyclo[3.2.1]octan-8-yl)benzo[d]thiazole-6-carboxylic acid], the Emax was 244% and the EC50 was 1 to 100 nM.
Compound O=C(NS(=O)(=O)N1CCCC1)c1cc(F)c2nc(N3CCC(NCc4c(-c5c(Cl)cccc5Cl)noc4C4CC4)CC3)sc2c1 [Example 400-7] has an Emax of 91% and an EC50 of 1 to 100 nM.
In the case of O=C(O)c1cc(C2CC2)c2nc(N3C4CCC3CC(NCc3c(-c5c(Cl)cccc5Cl)noc3C3CC3)C4)sc2c1 (centres unmarked) [Example 200-30], the Emax is reported as 108% and the EC50 is reported as < 1 nM.
In the case of COC(=O)c1ccc2nc(N3C4CCC3CC(NCc3c(-c5c(Cl)cccc5Cl)noc3C3CC3)C4)c(Cl)nc2c1 (centres unmarked) [Example 199], the Emax is reported as 58% and the EC50 is reported as 100 to 1000 nM.
